# According to paper PMC6295246 (Clinical cancer research : an official journal of the …, 2018):
# Tests used:
# [1] = Alisertib plasma pharmacokinetics; assay type: in vivo, human; conditions: pooled phase 1, phase 2 and OS cohorts
# [2] = tested on: relapsed or refractory neuroblastoma; test: Best objective response; assay type: in vivo, human; conditions: pooled Phase 1/2/OS
# [3] = tested on: relapsed or refractory neuroblastoma; test: Progression-free survival; assay type: in vivo, human; conditions: pooled Phase 1/2/OS
# [4] = tested on: relapsed and refractory neuroblastoma; conditions: phase 1, with irinotecan and temozolomide; cited from earlier work
# [5] = Alisertib Day 5 trough > median, N=21
# [6] = Alisertib Day 5 trough ≤ median, N=21
# [7] = Alisertib exposure > median, N=21
# [8] = Alisertib exposure ≤ median, N=21
smiles,measurement,setting,value
COc1cc(Nc2ncc3c(n2)-c2ccc(Cl)cc2C(c2c(F)cccc2OC)=NC3)ccc1C(=O)O [alisertib],"alisertib Day 5 trough in the first cycle, median",[1],0.46 µM
same,Objective Response,"[2]; > 2 Prior regimens, N=17",24%
same,Objective Response,"[2]; AURKA Codon 31 heterozygote, N=12",25%
same,Objective Response,"[2]; AURKA Codon 31 wild type, N=27",19%
same,Objective Response,"[2]; AURKA Codon 57 wild type, N=27",19%
same,Objective Response,"[2]; Age < 8 years, N=28",18%
same,Objective Response,"[2]; Age ≥ 4 years, N=47",26%
same,Objective Response,"[2]; Age ≥ 8 years, N=26",27%
same,Objective Response,"[2]; Alisertib Cmax > median, N=21",19%
same,Objective Response,"[2]; Alisertib Cmax ≤ median, N=21",24%
same,Objective Response,[2]; [5],24%
same,Objective Response,[2]; [6],19%
same,Objective Response,[2]; [7],19%
same,Objective Response,[2]; [8],24%
same,Objective Response,"[2]; Aurora A protein +, N=12",17%
same,Objective Response,"[2]; Aurora A protein −, N=18",22%
same,Objective Response,"[2]; Lin28B protein +, N=17",12%
same,Objective Response,"[2]; MYCN non-amplified, N=33",27%
same,Objective Response,"[2]; No prior irinotecan, N=36",28%
same,Objective Response,"[2]; No prior temozolomide, N=37",27%
same,Objective Response,"[2]; Prior temozolomide, N=17",12%
same,Objective Response,"[2]; UGT1A1 genotype 6 / 6, N=17",35%
same,Objective Response,"[2]; UGT1A1 genotype 6 / 7, N=17",6%
same,Objective Response,"[2]; UGT1A1 genotype 7 / 7, N=5",20%
same,Objective Response,"[2]; ≤ 2 Prior regimens, N=37",22%
same,1-Yr PFS,"[3]; > 2 Prior regimens, N=17",32%
same,1-Yr PFS,"[3]; AURKA Codon 31 wild type, N=27",32%
same,1-Yr PFS,"[3]; AURKA Codon 57 heterozygote, N=13",43%
same,1-Yr PFS,"[3]; Age ≥ 4 years, N=47",42%
same,1-Yr PFS,"[3]; Age ≥ 8 years, N=26",47%
same,1-Yr PFS,"[3]; Alisertib Cmax > median, N=21",28%
same,1-Yr PFS,"[3]; Alisertib Cmax ≤ median, N=21",55%
same,1-Yr PFS,[3]; [5],45%
same,1-Yr PFS,[3]; [6],33%
same,1-Yr PFS,[3]; [7],41%
same,1-Yr PFS,[3]; [8],38%
same,1-Yr PFS,"[3]; Lin 28B protein −, N=13",34%
same,1-Yr PFS,"[3]; MYCN amplified or Myc/Mycn +, N=18",12%
same,1-Yr PFS,"[3]; MYCN non-amplified, N=33",47%
same,1-Yr PFS,"[3]; No prior irinotecan, N=36",43%
same,1-Yr PFS,"[3]; No prior temozolomide, N=37",41%
same,1-Yr PFS,"[3]; Prior temozolomide, N=17",32%
same,1-Yr PFS,"[3]; UGT1A1 genotype 6 / 6, N=17",57%
same,1-Yr PFS,"[3]; UGT1A1 genotype 6 / 7, N=17",26%
same,1-Yr PFS,"[3]; UGT1A1 genotype 7 / 7, N=5",40%
same,1-Yr PFS,"[3]; ≤ 2 Prior regimens, N=37",42%
same,estimated progression-free survival (PFS) rate at 2 years,[4],52%
same,response rate,[4],31.8%
